Data taken from paper PMC8424644, “Thermodynamic Stability and Speciation of Ga(III) and Zr(IV) Complexes with High-Denticity Hydroxamate Chelators” (Inorganic Chemistry, 2021).

Tests used:
[1] = Fe(III)–Ga(III) metal–metal competition UV–vis titrations; format: physicochemical; settings: Ga(III)-L + Fe(III) competition titration, pH 1.5; judged to carry a greater error, not retained
Procedure: Assuming the domination of the [GaHL1]^+ complex below pH 2, its stability was determined by metal–metal competition titrations, (i) Fe(III)-H3L1 + Ga(III) and (ii) Ga(III)-H3L1 + Fe(III), both performed at pH 1.5. This pH was chosen in order to prevent the hydrolysis of the free metal ions and decomposition of the ligand, which is common for hydroxamic acids at a very acidic pH.[37],[51] Upon addition of Ga(III) (up to 600 equiv) to the Fe(III)-H3L1 solution, the UV–vis band of [FeHL1]^+ (λmax = 470 nm, Figure 2a) slowly disappeared as a result of the [GaHL1]^+ complex formation. […]
For the Ga(III)-H4L2 system, [GaH2L2]^+ was assumed to be the most abundant species at pH 1.5, and its stability was again determined via (i) Fe(III)-H4L2 + Ga(III) and (ii) Ga(III)-H4L2 + Fe(III) titrations (Figure S8). […]
For the Ga(III)-H3L4 system, [GaHL4]^+ was assumed to be the major complex at pH 1.5, and its stability was determined via an Fe(III)-H3L4 + Ga(III) competition titration (Figure S9). […]
In order to calculate the stability constants of the investigated complexes, several competitive titrations were performed. […] After preparation, each solution was allowed to equilibrate for about 1 h, and then its UV–vis spectrum was recorded. The vials were kept in the dark, and the absorbance was measured again after 24, 48, and 120 h. […]

[2] = pGa calculation (ligand sequestering ability); format: physicochemical; settings: pGa = −log[Ga(III)free], pH 7.4, cL = 10 μM, cGa(III) = 1 μM
Excerpt: Despite a large variety of PET chelators synthesized and tested in order to provide strong coordination of Ga(III) and Zr(IV) in vivo, until now it is has been hard to avoid the release of these metal ions in the body. Here we report two new Ga(III) and Zr(IV) hydroxamate chelators, designed to achieve an efficient sequestering of these metal ions but also to understand how the cyclization and the introduction of an additional hydroxamate group influences the stability of Zr(IV) complexes. Therefore, it is important to evaluate and compare the Ga(III)- and Zr(IV)-sequestering abilities of H3L1 and H4L2 with those of other chelators. However, the direct comparison of the stability constants of metal complexes is not straightforward, and other tools taking into account all the physicochemical properties of the ligands, i.e. their denticity, coordination modes, and acid–base properties, should be used.[52] In order to reliably compare the chelating abilities of H3L1 and H4L2 toward Ga(III) and Zr(IV) ions, the pM values were calculated. pFe was originally introduced by Raymond for the comparison of iron-siderophore systems;[53] pGa = −log[Ga(III)free] and pZr = −log[Zr(IV)free] were calculated at pH 7.4 with cL = 10 μM and cGa(III)/Zr(IV) = 1 μM (Table 2).

Row | Compound | log β [GaHL] [1] | pGa [2] | log β [GaH2L] [1]
1 | O=C1CCCN(O)C(=O)CCCNC(=O)CCCN(O)C(=O)CCCNC(=O)CCCN(O)C(=O)CCCN1 [H3L1, 1,11,21-Trihydroxy-1,6,11,16,21,26-hexaazacyclotriacontane-2,7,12,17,22,27-hexaone] | 28.3(6) | 22.5 | –
2 | N[C@H]1CCCCNC(=O)CCCN(O)C(=O)CCCNC(=O)CCCN(O)C(=O)CCCNC(=O)CCCN(O)C(=O)CCCNC(=O)CCCN(O)C(=O)CCCNC1=O [H4L2, (S)-43-Amino-6,16,26,36-tetrahydroxy-1,6,11,16,21,26,31,36,41-nonaazacycloheptatetracontane-2,7,12,17,22,27,32,37,42-nonaone] | – | 22.3 | 39.06(4)
